# Assays:
# Conditions in all cases: incubation time: 72 h
# MDA-MB-453 [1] = experiment: drug sensitivity score (DSS), CellTiter-Glo (DSS (AUC-based score)); higher = stronger drug effect (viability inhibition or cytotoxicity); extreme values may be limits of the assay
# Summary of the method: (§1)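 Breast cancer cell lines were seeded in 20 µl suspension into 384-well plates already holding compound and incubated for 72 h. Each compound was tested at 5 concentrations in 10-fold steps across its own 10,000-fold range. Plates were normalised to 0.1 % DMSO and a positive kill control after CellTox Green and then CellTiter-Glo readings. The area under the fitted dose-response curve served as the basis for the drug sensitivity score.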
# MFM-223 [2] = experiment: as above
# Summary of the method: as §1
# CAL-120 [3] = experiment: as above
# Summary of the method: as §1
# CAL-51 [4] = experiment: as above
# Summary of the method: as §1
# MDA-MB-468 [5] = experiment: as above
# Summary of the method: as §1
# CAL-148 [6] = experiment: as above
# Summary of the method: as §1
# MDA-MB-231 [7] = experiment: as above
# Summary of the method: as §1
# SK-BR-3 = experiment: as above
# Summary of the method: as §1
# HCC1937 [8] = experiment: as above
# Summary of the method: as §1
# BT-474 [9] = experiment: as above
# Summary of the method: as §1
# MDA-MB-453 [10] = experiment: normalised response (% of control), CellTox Green; higher = less cell death (100 = DMSO, 0 = benzethonium chloride kill control)
# Summary of the method: (§2)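 After 72 h with compound in 384-well plates, breast cancer cell lines seeded as 20 µl suspension were read for CellTox Green fluorescence at 485/520 nm. CellTiter-Glo luminescence was then read after 10 min at room temperature. Compound was present at 5 concentrations in 10-fold steps over a 10,000-fold range set per compound, and plates were normalised to 0.1 % DMSO (100) and a positive kill control (0). Values are normalised signals, each at a single concentration.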
# MFM-223 [11] = experiment: as above
# Summary of the method: as §2
# DU-4475 = experiment: as above
# Summary of the method: as §2
# CAL-120 [12] = experiment: as above
# Summary of the method: as §2
# MDA-MB-436 = experiment: as above
# Summary of the method: as §2
# HDQ-P1 = experiment: as above
# Summary of the method: as §2
# CAL-51 [13] = experiment: as above
# Summary of the method: as §2
# MCF-10A = experiment: as above
# Summary of the method: as §2
# HCC1143 = experiment: as above
# Summary of the method: as §2
# HCC1599 = experiment: as above
# Summary of the method: as §2
# BT-549 = experiment: as above
# Summary of the method: as §2
# MDA-MB-468 [14] = experiment: as above
# Summary of the method: as §2
# Hs578T = experiment: as above
# Summary of the method: as §2
# CAL-148 [15] = experiment: as above
# Summary of the method: as §2
# MDA-MB-231 [16] = experiment: as above
# Summary of the method: as §2
# HCC1937 [17] = experiment: as above
# Summary of the method: as §2
# CAL-85-1 = experiment: as above
# Summary of the method: as §2
# BT-474 [18] = experiment: as above
# Summary of the method: as §2
SMILES,drug sensitivity score (MDA-MB-453 [1]),drug sensitivity score (MFM-223 [2]),drug sensitivity score (CAL-120 [3]),drug sensitivity score (CAL-51 [4]),drug sensitivity score (MDA-MB-468 [5]),drug sensitivity score (CAL-148 [6]),drug sensitivity score (MDA-MB-231 [7]),drug sensitivity score (SK-BR-3),drug sensitivity score (HCC1937 [8]),drug sensitivity score (BT-474 [9]),normalised response (MDA-MB-453 [10]) [%],normalised response (MFM-223 [11]) [%],normalised response (DU-4475) [%],normalised response (CAL-120 [12]) [%],normalised response (MDA-MB-436) [%],normalised response (HDQ-P1) [%],normalised response (CAL-51 [13]) [%],normalised response (MCF-10A) [%],normalised response (HCC1143) [%],normalised response (HCC1599) [%],normalised response (BT-549) [%],normalised response (MDA-MB-468 [14]) [%],normalised response (Hs578T) [%],normalised response (CAL-148 [15]) [%],normalised response (MDA-MB-231 [16]) [%],normalised response (HCC1937 [17]) [%],normalised response (CAL-85-1) [%],normalised response (BT-474 [18]) [%]
C[C@]12CC[C@@H]3c4ccc(OC(=O)N(CCCl)CCCl)cc4CC[C@H]3[C@@H]1CC[C@@H]2O [Estramustine],0,0,0,2.19,0.683,0,0,0,0,0,,,,,,,,,,,,,,,,,,
C[C@]1(O)C[C@@H](c2nc(-c3ccc4ccc(-c5ccccc5)nc4c3)c3c(N)nccn32)C1 [Linsitinib],2.26,0,1.76,0,4.62,0,0,6.62,0,3.89,,,,,,,,,,,,,,,,,,
CC1(C)CNc2cc(NC(=O)c3cccnc3NCc3ccncc3)ccc21 [Motesanib],0,0,0,0,0.164,0,0,0,0,0,,,,,,,,,,,,,,,,,,
CC1(C)CNc2cc(NC(=O)c3cccnc3NCc3ccncc3)ccc21 [Motesanib] (10000 nM),,,,,,,,,,,101,97.2,101,96.7,109,94.1,101,80.4,94,108,103,123,86.8,102,114,98.6,94.5,98.2
CC(C)(C)c1cnc(CSc2cnc(NC(=O)C3CCNCC3)s2)o1 [SNS-032] (1000 nM),,,,,,,,,,,99.2,63.5,86.1,88.6,102,62.6,55.9,24,86.3,71.2,80.4,84,25,96.3,-97.4,115,17.1,90
CC(C)(C)c1cnc(CSc2cnc(NC(=O)C3CCNCC3)s2)o1 [SNS-032] (10000 nM),,,,,,,,,,,99.2,76.7,91.7,94.1,94.2,68.4,81.1,26.3,76.9,77.1,76,44.3,41.9,91.3,-26.5,76.1,42.8,93
Cn1cnc2c(F)c(Nc3ccc(Br)cc3Cl)c(C(=O)NOCCO)cc21 [Selumetinib] (1000 nM),,,,,,,,,,,104,93.2,60.8,81.4,80.4,77.2,103,90.4,70.1,89.4,116,108,100,99.2,43.8,88.9,77.5,96.9
Cn1cnc2c(F)c(Nc3ccc(Br)cc3Cl)c(C(=O)NOCCO)cc21 [Selumetinib] (10000 nM),,,,,,,,,,,101,100,62.3,87.3,101,75,101,74.4,97,108,99.7,-53.9,89.5,96,21.6,98.3,108,99.4
Nc1nc2[nH]cnc2c(=S)[nH]1 [Thioguanine] (10000 nM),,,,,,,,,,,97.6,103,91.9,97.7,93.2,101,80.3,108,106,96.2,87,51.8,133,92.2,85.2,83.7,97.4,103
